{
  "source": "patent US5068247A",
  "about": "“2-aminopentanoic acid compounds and their use as immunosuppressants” (priority 1989, dated 1991)",
  "key": {"[1]": {"tested_on": "mouse allogenic MLR (BALB/c mouse spleen cells stimulated with C57BL/6 mouse spleen cells)", "experiment": "mouse allogenic mixed lymphocyte reaction (MLR), 3H-thymidine uptake", "assay_type": "cell-based", "method": "The immunosuppressive activity of the compounds was assayed on the basis of mouse allogenic mixed lymphocyte reaction (hereinafter sometimes abbreviated as MLR). Mouse allogenic MRL was carried out using a mixed culture of BALB/c mouse (H-2^d) spleen cells as the responder cells and mitomycin C-treated C57BL/6 ([…]) mouse spleen cells as the stimulator cells in equal amounts.\nThe responder cells were prepared as follows:\nThe spleen was resected from 5- to 6-week-old BALB/c mice, and single cell suspension of spleen cells was prepared by using the RPMI1640 culture medium (containing 60 μg/ml of kanamycin sulfate, 2 mM of L-glutamine, 10 mM of N-2-hydroxyethylpiperazine-N'-2-ethanesulphonate (HEPES) and 0.1% sodium hydrogencarbonate) to which heat-inactivated fetal calf serum (hereinafter sometimes abbreviated as FCS) had been added to 5%. After hemolytic treatment, the cell suspension was adjusted to a concentration of 10^7 cells/ml with the RPMI1640 culture medium supplemented with 10^-4 M 2-mercapto-ethanol and 20% FCS, and was used as the responder cell suspension.\nThe stimulator cells were prepared as follows: The spleen was resected from 5- to 6-week-old male C57BL/6 mice, and a single cell suspension of spleen cells was prepared by using the RPMI1640 culture medium. After hemolytic treatment, the cells were treated with 40 μg/ml of mitomycin C at 37° C. for 60 minutes. After washing three times, the cell suspension was adjusted to a concentration of 10^7 cells/ml with the RPMI1640 culture medium supplemented with 10^-4 M 2-mercapto-ethanol and 20% FCS, and was used as the stimulator cell suspension.\nThe blastogenesis of lymphocytes was assayed using ^3 H-thymidine uptake as an index. That is, after termination of culture, 18.5 KBq/well of ^3 H-thymidine was added thereto and the suspension was cultured for 4 hours. Cells were harvested by a cell-harvester, and the radioactivity incorporated into the cells was determined by a liquid scintillation counter, which was used as an index of blastogenesis of lymphocytes in the mouse allogenic MLR. The suppression of the mouse allogenic MLR was evaluated by calculating the percent suppression by the following formula.\nThe test substance dissolved in methanol was diluted with the RPMI1640 culture medium and put to use."}, "[2]": {"experiment": "cytotoxicity to cultured tumor cell line MOLT4", "assay_type": "cell-based, human", "conditions": "human, molt4 cells, read-out: Suppression", "quoted_text": "(§1) Cytotoxicity to various human tumor cell lines was examined as follows:\n(§2) Cells of human cell lines, K562, MOLT4, U937 and HL60 were respectively suspended to the concentration of 4×10^5 cells/ml in the RPMI1640 culture medium supplemented with 20% FCS. Fifty μl of each suspension was added to each well of a 96-well microtest plate to which 50 μl of the test solution had been added. After culturing the suspension at 37° C. in an atmosphere of 5% carbon dioxide for 72 hours, the absorbancy at 570 nm was measured in the same way as with the colorimetry using MTT in Experiment Example 1, and the percent suppression was calculated by the following formula, which was used as an index of cytotoxicity."}, "MOLT4": {"tested_on": "MOLT4", "experiment": "cytotoxicity to cultured tumor cell line MOLT4", "assay_type": "cell-based, human", "quoted_text": "as §1, §2"}, "[3]": {"experiment": "cytotoxicity to cultured tumor cell line U937", "assay_type": "cell-based, human", "conditions": "human, u937 cells; 0.1 μg/ml; read-out: Suppression", "quoted_text": "as §1, §2"}, "U937": {"tested_on": "U937", "experiment": "cytotoxicity to cultured tumor cell line U937", "assay_type": "cell-based, human", "quoted_text": "as §1, §2"}, "[4]": {"experiment": "cytotoxicity to cultured tumor cell line K562", "conditions": "human, k562 cells, Suppression", "quoted_text": "as §1, §2"}, "K562": {"tested_on": "K562", "experiment": "cytotoxicity to cultured tumor cell line K562", "quoted_text": "as §1, §2"}, "[5]": {"experiment": "cytotoxicity to cultured tumor cell line HL60", "conditions": "human, hl60 cells, Suppression", "quoted_text": "as §1, §2"}, "HL60": {"tested_on": "HL60", "experiment": "cytotoxicity to cultured tumor cell line HL60", "quoted_text": "as §1, §2"}},
  "data": [
    {"smiles": "CCCCCCC(CCCCCC/C=C/C[C@@H](O)[C@H](O)[C@@](N)(CO)C(=O)O)=NO", "note": "[Example 4]", "values": [
      {"measurement": "3H-thymidine uptake", "setting": "[1]; 0.0001 μg/ml, Table 1A", "value": 16905, "unit": "cpm"},
      {"measurement": "3H-thymidine uptake", "setting": "[1]; 0.001 μg/ml, Table 1A", "value": 15970, "unit": "cpm"},
      {"measurement": "3H-thymidine uptake", "setting": "[1]; 0.01 μg/ml, Table 1A", "value": 15399, "unit": "cpm"},
      {"measurement": "3H-thymidine uptake", "setting": "[1]; 0.1 μg/ml, Table 1A", "value": 1637, "unit": "cpm"},
      {"measurement": "3H-thymidine uptake", "setting": "[1]; 1 μg/ml, Table 1A", "value": 1477, "unit": "cpm"},
      {"measurement": "inhibition at 0.0001 µg/mL", "setting": "[1]; Mus musculus, Lymphocyte, 0.0001 μg/ml, Table 1A, read-out: Suppression", "value": 9.1, "unit": "%"},
      {"measurement": "inhibition at 0.001 µg/mL", "setting": "[1]; Mus musculus, Lymphocyte, 0.001 μg/ml, Table 1A, read-out: Suppression", "value": 14.7, "unit": "%"},
      {"measurement": "inhibition at 0.01 µg/mL", "setting": "[1]; Mus musculus, Lymphocyte, 0.01 μg/ml, Table 1A, read-out: Suppression", "value": 18.1, "unit": "%"},
      {"measurement": "inhibition at 0.1 µg/mL", "setting": "[1]; Mus musculus, Lymphocyte, 0.1 μg/ml, Table 1A, read-out: Suppression", "value": 99.9, "unit": "%"},
      {"measurement": "inhibition at 1 µg/mL", "setting": "[1]; Mus musculus, Lymphocyte, 1 μg/ml, Table 1A, read-out: Suppression", "value": 100, "unit": "%"},
      {"measurement": "IC50", "setting": "[1]; Mus musculus, Lymphocyte, read-out: 50%-inhibition concentration (IC50) in mouse allogenic MLR", "value": 0.025, "unit": "µg/mL"},
      {"measurement": "cytotoxicity at 72 h", "setting": "[2]; 0.1 μg/ml", "value": 11, "unit": "%"},
      {"measurement": "cytotoxicity at 72 h", "setting": "[2]; 1 μg/ml", "value": 10.1, "unit": "%"},
      {"measurement": "cytotoxicity at 72 h", "setting": "[2]; 10 μg/ml", "value": 12.1, "unit": "%"},
      {"measurement": "Absorbancy", "setting": "MOLT4; 0.1 μg/ml", "value": "1.026 ± 0.026"},
      {"measurement": "Absorbancy", "setting": "MOLT4; 1 μg/ml", "value": "1.037 ± 0.027"},
      {"measurement": "Absorbancy", "setting": "MOLT4; 10 μg/ml", "value": "1.014 ± 0.055"},
      {"measurement": "cytotoxicity at 72 h", "setting": "[3]", "value": 0, "unit": "%"},
      {"measurement": "Absorbancy", "setting": "U937; 0.1 μg/ml", "value": "0.765 ± 0.033"},
      {"measurement": "Absorbancy", "setting": "U937; 1 μg/ml", "value": "0.744 ± 0.017"},
      {"measurement": "Absorbancy", "setting": "U937; 10 μg/ml", "value": "0.750 ± 0.048"},
      {"measurement": "cytotoxicity at 72 h", "setting": "[4]; 0.1 μg/ml", "value": 0, "unit": "%"},
      {"measurement": "cytotoxicity at 72 h", "setting": "[4]; 1 μg/ml", "value": 0.6, "unit": "%"},
      {"measurement": "cytotoxicity at 72 h", "setting": "[4]; 10 μg/ml", "value": 0, "unit": "%"},
      {"measurement": "Absorbancy", "setting": "K562; 0.1 μg/ml", "value": "1.145 ± 0.038"},
      {"measurement": "Absorbancy", "setting": "K562; 1 μg/ml", "value": "1.129 ± 0.021"},
      {"measurement": "Absorbancy", "setting": "K562; 10 μg/ml", "value": "1.148 ± 0.032"},
      {"measurement": "cytotoxicity at 72 h", "setting": "[5]; 0.1 μg/ml", "value": 6, "unit": "%"},
      {"measurement": "cytotoxicity at 72 h", "setting": "[5]; 1 μg/ml", "value": 0, "unit": "%"},
      {"measurement": "cytotoxicity at 72 h", "setting": "[5]; 10 μg/ml", "value": 8.2, "unit": "%"},
      {"measurement": "Absorbancy", "setting": "HL60; 0.1 μg/ml", "value": "1.401 ± 0.028"},
      {"measurement": "Absorbancy", "setting": "HL60; 1 μg/ml", "value": "1.493 ± 0.031"},
      {"measurement": "Absorbancy", "setting": "HL60; 10 μg/ml", "value": "1.368 ± 0.087"}
    ]}
  ]
}
